Data published in patent USRE49340E1, “Use of known compounds as D-amino acid oxidase inhibitors” (National Taiwan University, priority 2014, dated 2022).
Where “and” joins values, the source holds several entries; their conditions need not be identical. Equal values may be shown once. Entries after “also recorded” stand apart in the source; their conditions may differ. Where a name gives a salt, the structure may show the parent alone. Read-outs that look alike come from different tables or passages of the source.

Experiments:
porcine kidney DAAO = porcine kidney DAAO (Sus scrofa (Pig), UniProt P00371); assay: DAAO enzymatic assay; format: biochemical
Chain of porcine kidney DAAO (P00371 whole entry): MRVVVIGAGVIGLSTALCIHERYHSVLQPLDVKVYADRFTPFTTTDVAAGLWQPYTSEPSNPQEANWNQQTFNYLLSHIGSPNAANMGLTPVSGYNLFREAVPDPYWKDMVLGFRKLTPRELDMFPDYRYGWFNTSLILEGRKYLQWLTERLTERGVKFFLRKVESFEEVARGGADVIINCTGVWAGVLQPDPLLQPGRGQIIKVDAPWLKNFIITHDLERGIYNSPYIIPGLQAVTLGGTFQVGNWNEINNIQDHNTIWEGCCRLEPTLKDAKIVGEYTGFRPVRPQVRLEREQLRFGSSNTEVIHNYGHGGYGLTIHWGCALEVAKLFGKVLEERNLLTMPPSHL
Experimental: The DAAO activity was measured by using substrate D-alanine reaction produced hydrogen peroxide (H2O2) to further react with 3-(4-hydroxyphenyl) propionic acid (HPPA). The HPPA were oxidized by H2O2 and peroxidase to become the fluorogenic dimer which was measured to represent the activity of DAAO. The substrate of DAAO was prepared in 50 mM D-alanine (dissolved in 0.2 M Tris-HCl buffer, pH 8.3). […] A 10 ul of D-alanine and drug mixture was incubated with 220 ul of Reaction Master Mix in black 96 well plate at 37° C. for 5 min. The Reaction Master Mix contained 110 ul of 5 U/mL porcine kidney DAAO (Sigma-Aldrich, USA) solution (dissolved with 0.2 M Tris-HCl buffer, pH 8.3), 1.1 mL of 15 U/mL peroxidase solution (dissolved with 0.2 M Tris-HCl buffer, pH 8.3), 1.1 mL of 20 mM HPPA solution (dissolved with 0.2 M Tris-HCl buffer, pH 8.3), and 2.2 ml of 2 M Tris-HCl buffer (pH 8.3) for 110 reaction assays.
The higher is the DAAO enzymatic activity, the higher is the fluorescence intensity. The fluorometric inhibition indicator (Fi) was obtained from the following equation: Fi=(Fs−FDrug)/(FDMSO). Where the fluorescent drug blank (FDrug) were measured in the drug mixture solution (using 0.2 M Tris HCl buffer, pH 8.3, without D-alanine). A DMSO blank (FDMSO) was measured under a 100% DMSO solution. Although, in the assay for D-amino acid oxidase, FAD was generally included in the reaction mixture because this co-factor is easily dissociated from the holoenzyme, the present method was performed without FAD. […] The IC50 value was calculated by GraphPad Prism, version 5 software (GraphPad Software, Inc., La Jolla, Calif.) (GraphPad Prism 5, GraphPad software Inc: California, USA) through nonlinear regression model.

[1] = tested on: C57/B16 mice with MK-801 injection; assay: Hot plate test in MK-801 mouse model of schizophrenia; format: in vivo; details: mice given MK-801 0.2 mg/kg i.p.; listed as RS-D7
Text: (§1) Taking advantage of wild-type (WT, healthy) mouse and pharmacologic animal models of schizophrenia, such as MK-801 and methamphetamine mouse model of schizophrenia, as the well-established animal models of schizophrenia, we investigate the therapeutic potential of RS-D7, a DAO inhibitor, on the alleviation of schizophrenia-related negative and cognitive deficits. A serial of behavioral tasks has been selected and conducted for mimicking the cognitive (e.g., prepulse inhibition) and negative symptoms (e.g., sucrose preference test and hot plate test) of schizophrenia in healthy control mice or pharmacological mouse model of schizophrenia (Lai, W. S et al., Current Pharmaceutical Design, 2014, 20(32), 5139-50). The pharmacological animal model of schizophrenia is due in part to similarities in clinical presentation and response to treatment. These behavioral tasks have been evaluated with varying degrees of test validities for assessing schizophrenia-relevant behavioral deficits in mice. Different batches of male adult C57/B16 mice were used and the details of different behavioral tasks were described elsewhere.
(§2) MK-801 is a non-competitive NMDA receptor antagonist. An injection and chronic injections of MK-801 provide a potential animal model to mimic both the negative and cognitive symptoms of schizophrenia. […]

WT mice [2] = assay: Hot plate test in WT mouse model; format: in vivo; details: 55° C. hot plate, 40 mg/kg i.p., vs WT controls, listed as RS-D7
Text: as §1
For schizophrenia-like negative symptoms in mice, hot plate test was used to assess basic pain and nociception function in mice. […]

WT mice [3] = assay: Prepulse inhibition (PPI) in WT mouse model; format: in vivo; details: 20 mg/kg i.p., 78 dB prepulse, vs saline controls, listed as RS-D7
Text: as §1
To assess schizophrenia-like cognitive function in mice, prepulse inhibition (PPI) was used to evaluate sensorimotor gating functions in mice after RS-D7 injection. […]

[4] = tested on: C57/B16 mice with MK-801 injection; assay: Sucrose preference test in MK-801 mouse model of schizophrenia; format: in vivo; details: mice given MK-801 0.2 mg/kg i.p., 20 mg/kg RS-D7
Text: as §1, §2

[5] = tested on: C57/B16 mice with MK-801 injection; assay: Prepulse inhibition in MK-801 mouse model of schizophrenia; format: in vivo; details: mice given MK-801 0.2 mg/kg i.p., 40 mg/kg RS-D7
Text: as §1, §2

[6] = tested on: ICR mice with methamphetamine injection; assay: Prepulse inhibition in methamphetamine mouse model of schizophrenia; format: in vivo; details: ICR mice with methamphetamine 3 mg/kg i.p., 20 mg/kg i.p., especially 74 dB prepulse, vs DMSO and CBIO controls; listed as RS-D7
Text: Methamphetamine is a potent psychostimulant that increases the amount of extracellular dopamine in the brain. Methamphetamine (or amphetamine)-induced psychosis model has been well-established and useful for schizophrenia in laboratory animals.

[7] = porcine kidney DAAO, D-alanine substrate, HPPA fluorescence, pH 8.3, 37° C.

O=C([O-])c1ccccc1.[Na+] [sodium benzoate, reference compound]
IC50 (porcine kidney DAAO): ~71.7 µM

Clc1ccc2c(c1)N=C(N1CCNCC1)c1ccccc1N2 [N-Desmethylclozapine]
IC50 (porcine kidney DAAO; [7]): 102 µM

CNCC[C@H](Oc1cccc2ccccc12)c1cccs1 [Duloxetine, reference compound]
IC50 (porcine kidney DAAO): 5.47 µM

COc1ccc2nc([S@@+]([O-])Cc3ncc(C)c(OC)c3C)[nH]c2c1 [Esomeprazole, reference compound]
IC50 (porcine kidney DAAO; [7]): 106 µM

COc1cc(OC[C@@H]2CNCC[C@H]2c2ccc(F)cc2)ccc1O [PM-BRL 36610A, (−)trans 4-(4-fluorophenyl)-3-(4-hydroxy-3-methoxyphenoxymethyl)piperidine-hydrochloride]
IC50 (porcine kidney DAAO; [7]): 3.45 µM

CCN(CC)Cc1cc(Nc2ccnc3cc(Cl)ccc23)ccc1O [Amodiaquin, reference compound]
IC50 (porcine kidney DAAO; [7]): 97.6 µM

COc1c(C)cnc(C[S+]([O-])c2nc3cc(O)ccc3[nH]2)c1C (stereo not shown) [5-O-Desmethyl-Omeprazole]
latency in hot plate test [1]: alleviates; also recorded: alleviated the MK-801-induced alteration
reaction numbers in hot plate test [1]: alleviates; also recorded: alleviated the MK-801-induced alteration
latency of mouse first reaction (jump) on hot plate (WT mice [2]): increases nociception function; also recorded: accelerated
numbers of jump on hot plate (WT mice [2]): increases nociception function; also recorded: increased
IC50 (porcine kidney DAAO; [7]): 1.19 µM and 1 to 10 µM
prepulse inhibition (sensorimotor gating function) (WT mice [3]): increases; also recorded: induced a greater PPI
sucrose uptake in sucrose preference test (anhedonia) [4]: alleviates; also recorded: rescued the MK-801 induced deficit
acoustic prepulse inhibition [5]: alleviates; also recorded: significantly alleviated MK-801 induced PPI deficit
prepulse inhibition (sensorimotor gating function) [6]: alleviates sensorimotor gating deficit; also recorded: induce a greater PPI

COc1ccc(OC[C@@H]2CNCC[C@H]2c2ccc(F)cc2)cc1O [PM-BRL 36583A, (−)-trans 4-(4-Fluorophenyl)-3-(3-hydroxy-4-methoxyphenoxymethyl) piperidine]
IC50 (porcine kidney DAAO; [7]): 3.67 µM
